Data reported in patent US20220079915A1, “IMMUNOSUPPRESSIVE PHARMACEUTICAL COMPOSITION AND APPLICATION THEREOF” (Shanghai Archeus Biotech Co., Ltd., priority 2018, published 2022).

Legend:
[1] = test system: THP-1 cells; test: THP-1 cell viability assay (MTT); type: cell-based, human; conditions: groups with or without the compound; FIG. 3
Protocol: 1) Recoveried and expanded THP-1 cells in a T75 culture flask. The growth medium was 10 milliliters of 10% fetal bovine serun/RPMI1640 (already containing 2 mM glutamine)/1% double antibiotics in each flask. […]

[2] = test system: IL-17A; test: IL-17A secretion of mouse spleen Naïve CD4+ T cells induced to differentiate to Th17 cells by cytokines, ELISA; type: cell-based
Protocol: 1) Pre-coated the 96-well plate with 2 μg/mL anti-mouse CD3e and incubated overnight at 4 degrees Celsius: 2) Separated fresh spleens from adult C57BL/6 female mice (8-12 weeks old), ground and filtered through a […] nylon cell strainer to obtain a single cell suspension in pre-cooled DPBS; 3) Washed the spleen cells again with DPBS, and resuspended in RoboSep™ buffer at a density of 1×10^8/mL; 4) Separated primary CD4+ T cells with mouse primary CD4+ T cell isolation kit as required by the kit; 5) Resuspended the isolated CD4+ T cells in complete medium (RPMI 1640 medium+10% inactivated FBS+1% double antibiotics) at a density of 1×10^6/mL; 6) Washed the 96-well plate pre-coated with anti-mouse CD3e twice with DPBS, added 50 μL of cytokine cocktail, the composition and final concentration of which are shown in Table 6 below, and then added 50 μL of compound solution (the final concentration of DMSO was 0.1%). Added 100 μL of cell suspension to each well to allow the final cell number per well to be 1×10^5/100 μL; [table] 7) Cultured the cells for 7 days under the above conditions. The culture conditions were 37 degrees Celsius, 5% CO2 concentration; 8) After 7 days, added 1× stimulation cocktail (eBioscience 500X) to the culture medium for 4 hours, and then collected cell culture supernatant for detection with IL-17A enzyme-linked immunoassay kit; 9) Completed the detection of supernatant IL-17A concentration with mouse IL-17 DuoSet ELISA kit; 10) Read the OD450 nm absorbance value with a microplate reader, and generated the standard curve by using the 4-parameter logistic fitting (4-PL) method. 1) Diluted the capture antibody (provided in the kit) to a working concentration in PBS without carrier protein, that is, a 96-well plate can be coated with 100 microliters per well. Sealed and incubated the plate overnight at room temperature; 2) Aspirated the coating buffer of the well plate, and eluted with 400 microliters of eluent (provided in the kit) for three times, aspirating as much liquid as possible each time; 3) Added 300 microliters of diluent (provided in the kit) to each well, and equilibrated for 1 hour at room temperature; 4) Eluted the well plate as in the above step 2) to be ready for the addition of sample; ) Added 100 microliters of sample or standard to each well containing the added diluent, and sealed and incubated the well plate for 2 hours at room temperature; 6) Eluted the well plate as in the above step 2); 7) Added 100 microliters of detector antibody (provided in the kit) to each well, and sealed and incubated the well plate for 2 hours at room temperature. 8) Eluted the well plate as in the above step 2); 9) Added 100 microliters of Streptavidin-HRP working solution (provided in the kit) to each well, and sealed and incubated the well plate in dark for 20 minutes at room temperature. 10) Eluted the well plate as in the above step 2); 11) Added 100 microliters of reaction substrate solution (provided in the kit) to each well, and incubated at room temperature for 20 minutes, protected from light: 12) Added 50 microliters of stop solution (provided in the kit) to each well, and tapped the well plate to ensure that the liquid is evenly mixed; 13) Detected the optical density value of each well at […]. The values could be corrected by deducting the values at 540 nm or 570 nm.

`C=C[C@@]1(C)CC(=O)C2(O)[C@@]3(C)C(O)CCC(C)(C)C3[C@H](OC(=O)CCN(C)C)[C@H](OC(C)=O)[C@@]2(C)O1.Cl` (stereo partly drawn) [6-[3-(dimethylamino)propionyl]forskolin hydrochloride] was tested, and the cell viability [1] was “no significant difference”, the “IL-17A level, % of the positive control” value ([2]; 0.5 μM alone) was 88% and the “reduction in IL-17A levels” value ([2]; 0.5 μM used alone) was 12%. For the same compound, the “IL-17A level, % of the positive control” value ([2]; 1 μM alone) was 19%, the “IL-17A, % of the basic level” value ([2]; 1 μM compound alone, FIG. 10) was 18% and the inhibition at 10 µM ([2]; Mus musculus, CD4+ T, 168 h, 10 μM, 7 days cytokine induction, FIG. 8, read-out: inhibition of the positive control IL-17A level) was about 97%. For the same compound, the inhibition at 1 µM ([2]; Mus musculus, CD4+ T, 1 μM alone, FIG. 10, read-out: reduction in IL-17A levels (inhibitory effect)) was 81%, the “IL-17A treatment value, A” value ([2]; Table 7, relative to control, 0.5 μM) was 88% and the “IL17-A treatment value, A” value ([2]; Table 8, relative to control, 0.5 μM) was 88%.
